“Also recorded” adds a separate entry of the source.
Tests used:
[1] = system: HN5 cells; assay: γ-H2AX foci formation (DNA damage); assay type: cell-based; conditions: inhibitor pretreatment, cGNR 24h, 2 Gy (250 kV, 15 mA)
Source text: (§1) FIGS. 5A-5G: Blocking endocytosis steps modulates radiosensitization by cGNRs. […] The radiation dose enhancement factor (DEF) at 10% cell survival was cGNR—1.08, CPZ+cGNR—1.005, BAF-A1+cGNR—1.19, LAC+cGNR—1.16, and CHQ+cGNR—1.20. (B) Intracellular localization cGNR in HN5 cells imaged by TEM 24 hrs after treatment with cGNRs in the presence of (a) PBS, (b) CPZ, (c) BAF-A1, (d) LAC or (e) CHQ for 1 hr. […] (E) Reactive oxygen species measured by CellROX assay kit following treatment of HN5 cells with 2 Gy radiation in the absence or presence of specific inhibitors of internalization with and without cGNRs. […] (F) Elemental gold content of cells analyzed by inductively coupled plasma mass spectrometry.
Therefore, γ-H2AX was evaluated in HN5 cells pretreated with different pharmacological inhibitors and incubated with cGNR for 24h followed by 2 Gy of radiation (250 kV, 15 mA) (FIG. 5C).

[2] = system: HN5 cells; assay: Elemental gold content of cells by ICP-MS; assay type: cell-based; conditions: 24 h treatment
Source text: as §1

[3] = system: HN5 cells; assay: Reactive oxygen species by CellROX assay kit; assay type: cell-based; conditions: 2 Gy radiation, with cGNRs, with or without inhibitors
Source text: as §1

[4] = system: HN5 cells; assay: Clonogenic survival with inhibitors of endocytosis steps plus cGNR; assay type: cell-based; conditions: HN5, 250 kVp; inhibitor pre-treatment 1 hr, then cGNR 24 hr; CPZ 5 μg/ml, BAF-A1 100 nM, LAC 1 μM, CHQ 5 μM
Source text: as §1
(§2) To study the effect of each step of cGNR internalization on radiosensitization, each step of the endocytotic pathway (energy-dependent receptor-mediated endocytosis, early endosomal entrapment, stasis in the late endosomal compartment, and endolysosomal fusion) was blocked using pharmacologic inhibitors in HN5 cells.

[5] = system: HN5 cells; assay: Intracellular localization of cGNR by TEM; assay type: cell-based; conditions: TEM 24 hrs after cGNRs, inhibitor for 1 hr
Source text: as §1, §2

[6] = system: HN5 xenografts; assay: Tumor regrowth delay of HN5 xenografts with radiation; assay type: in vivo, nu/nu mice; conditions: CHQ 6 hrs and 24 hrs before radiation, with cGNRs; p=0.02
Source text: as §1

[7] = system: HN5 cells; assay: Micronuclei per 1000 binucleated cells; assay type: cell-based; conditions: cGNRs 24 hrs and radiation, inhibitor pretreatment 1 hr
Source text: as §1
FIG. 10A-10C: Number of micronuclei per 1000 binucleated cells broken down as (A) one, (B) two, or (C) multiple. Cells were treated with cGNRs and radiation in the absence or presence of specific inhibitors of internalization.

SMILES | γ-H2AX foci / DNA damage [1] | γ-H2AX foci / DNA damage ([1]; listed as CPZ) | cellular gold content / uptake of cGNR [2] | intracellular reactive oxygen species [3] | radiation dose enhancement factor (DEF) at 10% cell survival [4] | intracellular localization of cGNR [5] | γ-H2AX foci / DNA damage ([1]; listed as CHQ) | cellular gold content / uptake of cGNR ([2]; listed as CHQ) | time to tumor volume quadrupling [6] | γ-H2AX foci / DNA damage ([1]; listed as BAF-A1) | γ-H2AX foci / DNA damage ([1]; listed as Bafilomycin) | cellular gold content / uptake of cGNR ([2]; listed as BAF-A1) | micronuclei per 1000 binucleated cells [7] | micronuclei per 1000 binucleated cells ([7]; listed as BAF-A1) | intracellular reactive oxygen species ([3]; listed as BAF-A1) | γ-H2AX foci / DNA damage ([1]; listed as LAC) | cellular gold content / uptake of cGNR ([2]; listed as LAC) | micronuclei per 1000 binucleated cells ([7]; listed as LAC) | intracellular reactive oxygen species ([3]; listed as LAC)
CN(C)CCCN1c2ccccc2Sc2ccc(Cl)cc21 [chlorpromazine] | abrogated the effect of cGNR treatment | not | significantly (p<0.001) inhibited the cellular uptake of cGNRs | reduced the intracellular ROS | 1.005 | blocked internalization of cGNRs |  |  |  |  |  |  |  |  |  |  |  |  | 
CCN(CC)CCCC(C)Nc1ccnc2cc(Cl)ccc12 (stereo not shown) [chloroquine] | further enhanced the DNA damage |  | no significant differences in the cellular uptake of cGNR |  | 1.2 | unclustered cGNRs | increased foci formation | no different | statistically significant increase in time to tumor volume quadrupling |  |  |  |  |  |  |  |  |  | 
CO/C1=C\C(C)=C\[C@@H](C)[C@@H](O)[C@@H](C)C/C(C)=C/C=C/[C@H](OC)[C@@H]([C@@H](C)[C@@H](O)[C@H](C)[C@@]2(O)C[C@@H](O)[C@H](C)[C@@H](C(C)C)O2)OC1=O [bafilomycin A, bafilomycin A1] | greatest increase in DNA damage |  | no significant differences in the cellular uptake of cGNR | further enhanced the intracellular ROS | 1.19 | unclustered cGNRs |  |  |  | increased foci formation | further enhanced the DNA damage | no different | significantly higher number of MNBC | enhancement in radiosensitization; also recorded: significant increase in radiation-induced micronuclei formation | even greater enhancement of oxidative stress |  |  |  | 
CC(=O)N[C@@H](CSC(=O)[C@]1([C@@H](O)C(C)C)NC(=O)[C@H](C)[C@@H]1O)C(=O)O [lactacystin] | further enhanced the DNA damage |  | no significant differences in the cellular uptake of cGNR | further enhanced the intracellular ROS | 1.16 | unclustered cGNRs |  |  |  |  |  |  | significantly higher number of MNBC |  |  | increased foci formation | no different | enhancement in radiosensitization; also recorded: significant increase in radiation-induced micronuclei formation | even greater enhancement of oxidative stress

Source: patent publication US20180250404A1, “HIGH-Z NANOPARTICLES AND THE USE THEREOF IN RADIATION THERAPY” (Board of Regents, The University of Texas System, priority 2015, published 2018)
